The record followed here is patent US9695193B2, “Inhibitors of Plasmodium falciparum equilibrative nucleoside transporter type I as anti-parasitic compounds” (The Trustees of Columbia University in the City of New York, priority 2013, dated 2017).

The target in this test is T1, PfENT1 (Plasmodium falciparum, UniProt Q8IDM6).
T1 construct: expressed in transfected cells; host or cells: fui1Δ yeast (Saccharomyces cerevisiae), co-expressing GFP
In kind it is cell-based. As to conditions: primary HTS, compounds at 10 μM, 125 μM 5-FUrd. As for the experimental part:
A yeast-based high throughput screening (HTS) assay was used to identify compounds that inhibit PfENT1. The compounds described in this application were identified by screening four commercially available, chemical compound libraries obtained from Dr. Donald Landry's laboratory (Department of Medicine, Columbia University). These libraries contain approximately 80,000 unique chemical entities.
In the primary screen the compounds were tested at a concentration of 10 μM. Hits were identified by the growth of fui1Δ yeast expressing PfENT1 and Green Fluorescent Protein (GFP) in the presence of the cytotoxic nucleoside 5-fluorouridine (5-FUrd). 5-FUrd is transported by PfENT1. PfENT1 expressing fui1Δ yeast will only grow in the presence of 125 μM 5-FUrd if a PfENT1 inhibitor blocks the uptake of 5-FUrd into the yeast. Significant yeast growth in the HTS in 384 well plates was determined by two criteria: 1) turbidity as determined by the optical density at 620 nm (OD620) and 2) GFP fluorescence intensity. […] Hits had to be positive by both criteria.

T1 sequence (Q8IDM6 whole entry): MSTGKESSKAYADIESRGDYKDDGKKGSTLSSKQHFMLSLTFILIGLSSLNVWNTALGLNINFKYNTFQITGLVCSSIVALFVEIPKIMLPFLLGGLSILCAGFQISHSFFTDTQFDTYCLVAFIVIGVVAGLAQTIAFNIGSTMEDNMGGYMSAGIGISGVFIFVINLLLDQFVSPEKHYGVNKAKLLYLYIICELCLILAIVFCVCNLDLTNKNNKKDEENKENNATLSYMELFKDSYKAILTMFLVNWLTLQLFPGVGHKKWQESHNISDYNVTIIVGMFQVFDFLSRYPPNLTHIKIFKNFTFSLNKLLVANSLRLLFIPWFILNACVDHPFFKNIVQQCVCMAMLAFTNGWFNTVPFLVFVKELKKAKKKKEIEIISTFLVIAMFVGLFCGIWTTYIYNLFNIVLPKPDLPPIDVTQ

In the case of `CCOc1ccc(N(CC(=O)N2CCN(C)CC2)S(C)(=O)=O)cc1` [compound 50], the “Avg Normalized % maximal activity” value is listed as 8.23%.
Consider `CCOC(=O)c1cc(NC(=O)c2ccco2)ccc1N1CCOCC1` [compound 51, ethyl 5-(2-furoylamino)-2-morpholin-4-ylbenzoate], for which the “Avg Normalized % maximal activity” value stood at 8.11%.
For `COC(=O)c1ccccc1NC(=O)c1cccc(NC(=O)C(C)C)c1` [compound 52], the “Avg Normalized % maximal activity” value was 8.03%.
The result for `COCc1cc(C)nc2sc(C(=O)Nc3cccc(OC)c3)c(N)c12` [compound 53, 3-amino-4-(methoxymethyl)-N-(3-methoxyphenyl)-6-methylthieno [2,3-b]pyridine-2-carboxamide] reads 7.94%.
The result for `COc1ccc(-c2cnc3ccccc3n2)cc1NC(=O)c1ccco1` [compound 54, N-[2-methoxy-5-(2-quinoxalinyl)phenyl]-2-furamide] reads 7.83%.
Regarding `Cc1cccn2c(=O)c3cc(C(=O)NC4CCCC4)sc3nc12` [compound 55, N-cyclopentyl-9-methyl-4-oxo-4H-pyrido[1,2-a]thieno[2,3-d] pyrimidine-2-carboxamide], the “Avg Normalized % maximal activity” value is listed as 7.75%.
The result for `O=C(CSc1nnc2ccc3ccccc3n12)Nc1ccccc1F` [compound 56, N-(2-fluorophenyl)-2-([1,2,4]triazolo[4,3-a]quinolin-1-ylthio)acetamide] reads 7.69%.
As for `CCN(CC)C(=O)c1ccc(-c2ccc(N3CCOCC3)c3ccccc23)nn1` [compound 57], the figure is 7.64%; as for `COc1ccc(-c2nc3ccccc3s2)cc1NC(=O)c1cccnc1` [compound 58, N-[5-(1,3-benzothiazol-2-yl)-2-methoxyphenyl] nicotinamide], 7.63%; as for `Cn1nc(-c2ccc(C(=O)N3CCCCC3)cc2)c2ccccc2c1=O` [compound 59, 2-methyl-4-[4-(1-piperidinylcarbonyl)phenyl]-1(2H)-phthalazinone], 7.59%.
The result for `Cc1ccc2c(Cl)c(C(=O)Nc3cccnc3)sc2c1` [compound 60, 3-chloro-6-methyl-N-3-pyridinyl-1-benzothiophene-2-carboxamide] reads 7.53%.
Turning to `CC1(C)CC(=O)c2sc(NC(=O)c3ccccc3F)nc2C1` [compound 61, N-(5,5-dimethyl-7-oxo-4,5,6,7-tetrahydro-1,3-benzothiazol-2-yl)-2-fluorobenzamide], the “Avg Normalized % maximal activity” value is recorded as 7.27%.
The result for `O=C(Cc1cccc2ccccc12)Nc1nncs1` [compound 62, 2-(1-naphthyl)-N-1,3,4-thiadiazol-2-ylacetamide] reads 7.27%; that for `COc1ccc(OC)c(Nc2nc(=O)c3cccnc3s2)c1` [compound 63, 2-[(2,5-dimethoxyphenyl)amino]-4H-pyrido[3,2-e][1,3] thiazin-4-one], 7.19%.
The result for `CCOc1cc(-c2noc(CCCC(=O)N3CCCCC3)n2)ccc1OC` [compound 64, 1-{4-[3-(3-ethoxy-4-methoxyphenyl)-1,2,4-oxadiazol-5-yl]butanoyl}piperidine] reads 7.14%; that for `Cc1ccnc(NC(=O)c2cccc(NC(=O)c3ccco3)c2)c1` [compound 65, N-(3-{[(4-methyl-2-pyridinyl)amino]carbonyl}phenyl)-2-furamide], 7.09%.
The result for `CCC(=O)c1ccc(/C=C/c2nc3ccccc3n2C)o1` [compound 66, 1-{5-[2-(1-methyl-1H-benzimidazol-2-yl)vinyl]-2-furyl}-1-propanone] reads 7.04%.
Turning to `COc1ccc(-c2cc3ccccc3oc2=O)cc1NC(=O)c1cccs1` [compound 67, N-[2-methoxy-5-(2-oxo-2H-chromen-3-yl)phenyl]-2-thiophenecarboxamide], the “Avg Normalized % maximal activity” value is 6.98%.
As for `CC(C)(C)c1nnc(NC(=O)c2cccc(Cl)c2)s1` [compound 68], the figure is 6.79%.
